Laboratory results as given in PubChem BioAssay AID330 (DTP/NCI, 2004).
Where “and” joins values, the source holds several entries; their conditions need not be identical. Equal values may be shown once. Inconclusive results and toxic doses are left out. How the source made its calls: active means survival T/C of 150% or more; inactive means T/C below 125% in these data.

System: P388 leukemia ip, CD2F1 mice, survival T/C
Test: NCI In Vivo Anticancer Drug Screen. Data for tumor model P388 Leukemia (intraperitoneal) in CD2F1 (CDF1) mice
Conditions: endpoint: median survival time, higher = longer survival
Outline: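 Mice carrying the transplanted tumor received test compound or vehicle. Survival was recorded in each group, and the value is the treated-group measurement divided by that of the vehicle-treated control group.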

[1] = dose: 12.5 mg/kg/injection, schedule: Q04DX003 (ip), vehicle: saline with Tween-80
[2] = dose: 25.0 mg/kg/injection, schedule: Q04DX003 (ip), vehicle: saline with Tween-80
[3] = dose: 60.0 mg/kg/injection, schedule: Q01DX005 (ip), vehicle: saline with Tween-80
[4] = dose: 120.0 mg/kg/injection, schedule: Q01DX005 (ip), vehicle: saline with Tween-80
[5] = dose: 240.0 mg/kg/injection, schedule: Q01DX005 (ip), vehicle: saline with Tween-80
[6] = dose: 50.0 mg/kg/injection, schedule: Q01DX005 (ip), vehicle: saline with Tween-80
[7] = dose: 100.0 mg/kg/injection, schedule: Q01DX005 (ip), vehicle: saline with Tween-80
[8] = dose: 200.0 mg/kg/injection, schedule: Q01DX005 (ip), vehicle: saline with Tween-80
[9] = dose: 50.0 mg/kg/injection, schedule: Q04DX003 (ip), vehicle: saline with Tween-80
[10] = dose: 100.0 mg/kg/injection, schedule: Q04DX003 (ip), vehicle: saline with Tween-80
[11] = dose: 200.0 mg/kg/injection, schedule: Q04DX003 (ip), vehicle: saline with Tween-80
[12] = dose: 100.0 mg/kg/injection, schedule: Q01DX009 (ip), vehicle: saline
[13] = dose: 200.0 mg/kg/injection, schedule: Q01DX009 (ip), vehicle: saline
[14] = dose: 200.0 mg/kg/injection, schedule: Q04DX002 (ip), vehicle: saline with Tween-80
[15] = dose: 400.0 mg/kg/injection, schedule: Q04DX002 (ip), vehicle: saline with Tween-80
[16] = dose: 50.0 mg/kg/injection, schedule: Q01DX009 (ip), vehicle: Klucel (hydroxypropylcellulose) (HPC)
[17] = dose: 100.0 mg/kg/injection, schedule: Q01DX009 (ip), vehicle: Klucel (hydroxypropylcellulose) (HPC)
[18] = dose: 50.0 mg/kg/injection, schedule: Q01DX009 (ip), vehicle: saline with Tween-80
[19] = dose: 100.0 mg/kg/injection, schedule: Q01DX009 (ip), vehicle: saline with Tween-80
[20] = dose: 50.0 mg/kg/injection, schedule: Q01DX005 (ip), vehicle: Klucel (hydroxypropylcellulose) (HPC)
[21] = dose: 100.0 mg/kg/injection, schedule: Q01DX005 (ip), vehicle: Klucel (hydroxypropylcellulose) (HPC)
[22] = dose: 200.0 mg/kg/injection, schedule: Q01DX005 (ip), vehicle: Klucel (hydroxypropylcellulose) (HPC)

Measured: T/C

N#Cc1ccccc1C#N
inactive: dose: 1.56 mg/kg/injection, schedule: Q04DX003 (ip), vehicle: saline 98 % of control | dose: 3.13 mg/kg/injection, schedule: Q04DX003 (ip), vehicle: saline 98 % of control | dose: 6.25 mg/kg/injection, schedule: Q04DX003 (ip), vehicle: saline 100 % of control | [1] 104 % of control | dose: 12.5 mg/kg/injection, schedule: Q04DX003 (ip), vehicle: saline 100 % of control | [2] 95 % of control

COC1=CC2OC3OC(=O)CC3C2C(OCc2ccccc2)=C1 (stereo unspecified)
inactive: [3] 91 % of control | [4] 88 % of control | [5] 90 % of control

COc1ccc(C(=O)CC(=O)C(=O)Nc2ccc(Cl)cc2)cc1
inactive: [6] 103 % of control | [7] 101 % of control | [8] 109 % of control

COC(=O)c1[nH]c(=O)[nH]c(=O)c1N
inactive: [2] 100 % of control | [9] 101 % of control | [10] 100 % of control | [11] 102 % of control

CCOC(=O)/C=C/C(=O)O.CCOC(=O)/C=C/C(=O)O.[Mn].[NH-]CC(=O)O
inactive: dose: 100.0 mg/kg/injection, schedule: Q04DX003 (ip), vehicle: saline 96 % of control | dose: 200.0 mg/kg/injection, schedule: Q04DX003 (ip), vehicle: saline 96 % of control | dose: 400.0 mg/kg/injection, schedule: Q04DX003 (ip), vehicle: saline 98 % of control

C=C(C)C(=O)O[C@@H]1C/C(C)=C\[C@H](OC(C)=O)C[C@](C)(O)/C=C2/OC(=O)C(COC(C)=O)=C21
inactive: dose: 5.5 mg/kg/injection, schedule: Q01DX005 (ip), vehicle: Klucel (hydroxypropylcellulose) (HPC) 105 % of control and 110 % of control | dose: 11.0 mg/kg/injection, schedule: Q01DX005 (ip), vehicle: Klucel (hydroxypropylcellulose) (HPC) 103 % of control and 109 % of control | dose: 22.0 mg/kg/injection, schedule: Q01DX005 (ip), vehicle: Klucel (hydroxypropylcellulose) (HPC) 122 % of control

CCCCC1(C(O)CC)Sc2ccccc2N1C (stereo unspecified)
inactive: [3] 100 % of control | [4] 101 % of control | [5] 110 % of control

O=C1NC2CSC(CCCCC(=O)ON3C(=O)CCC3=O)C2N1 (stereo unspecified)
inactive: [6] 104 % of control | [7] 116 % of control | [8] 116 % of control

COC(=O)NN(C(=O)OC)C1CCC2C1c1ccccc1N(C(=O)OC)N2C(=O)OC (stereo unspecified)
inactive: dose: 60.0 mg/kg/injection, schedule: Q01DX005 (ip), vehicle: Klucel (hydroxypropylcellulose) (HPC) 108 % of control | dose: 120.0 mg/kg/injection, schedule: Q01DX005 (ip), vehicle: Klucel (hydroxypropylcellulose) (HPC) 113 % of control | dose: 240.0 mg/kg/injection, schedule: Q01DX005 (ip), vehicle: Klucel (hydroxypropylcellulose) (HPC) 103 % of control

C[Si](C)(C)N1CCCC1
inactive: dose: 25.0 mg/kg/injection, schedule: Q01DX009 (ip), vehicle: saline 105 % of control | dose: 50.0 mg/kg/injection, schedule: Q01DX009 (ip), vehicle: saline 89 % of control | [12] 90 % of control | [13] 107 % of control

Cc1nn(C(=S)S)c(C)c1N=Nc1ccccc1C(F)(F)F
inactive: dose: 3.12 mg/kg/injection, schedule: Q04DX002 (ip), vehicle: saline with Tween-80 99 % of control and 102 % of control | dose: 6.25 mg/kg/injection, schedule: Q04DX002 (ip), vehicle: saline with Tween-80 100 % of control | dose: 12.5 mg/kg/injection, schedule: Q04DX002 (ip), vehicle: saline with Tween-80 108 % of control and 94 % of control | dose: 25.0 mg/kg/injection, schedule: Q04DX002 (ip), vehicle: saline with Tween-80 103 % of control and 86 % of control and 89 % of control | dose: 50.0 mg/kg/injection, schedule: Q04DX002 (ip), vehicle: saline with Tween-80 96 % of control | [14] 89 % of control | [15] 105 % of control

CN(C)CC1CC1N1c2ccccc2Sc2ccc(Cl)cc21 (stereo unspecified)
inactive: dose: 25.0 mg/kg/injection, schedule: Q01DX009 (ip), vehicle: Klucel (hydroxypropylcellulose) (HPC) 99 % of control | [16] 101 % of control and 112 % of control | [17] 101 % of control and 112 % of control

CN(C)C(=S)SCc1ccc(C(=O)O)nc1
inactive: [18] 99 % of control | [19] 98 % of control

CNCC(OC)c1ccc(O)c(O)c1 (stereo unspecified)
inactive: [12] 104 % of control and 107 % of control | [13] 107 % of control and 118 % of control

O=C1NN2CCCN=C2c2cccnc21
inactive: dose: 100.0 mg/kg/injection, schedule: Q04DX002 (ip), vehicle: saline with Tween-80 101 % of control | [14] 98 % of control | [15] 101 % of control

O=C(c1ccccc1[N+](=O)[O-])C1OC1c1ccccc1 (stereo unspecified)
inactive: [20] 102 % of control | [21] 99 % of control | [22] 96 % of control

NC(=S)c1ccc2ccccc2c1
inactive: [20] 100 % of control | [21] 100 % of control | [22] 100 % of control

CCn1c2nc(=O)[nH]c(=O)c-2cc2ccccc21
inactive: dose: 45.0 mg/kg/injection, schedule: Q01DX009 (ip), vehicle: saline with Tween-80 113 % of control | dose: 90.0 mg/kg/injection, schedule: Q01DX009 (ip), vehicle: saline with Tween-80 103 % of control | dose: 180.0 mg/kg/injection, schedule: Q01DX009 (ip), vehicle: saline with Tween-80 101 % of control

O=C(O)C(Cc1ccccc1F)NC(=O)C(F)(F)F (stereo unspecified)
inactive: [18] 92 % of control | [19] 94 % of control | dose: 200.0 mg/kg/injection, schedule: Q01DX009 (ip), vehicle: saline with Tween-80 100 % of control

CCOC(=O)C1(CO)C(=O)Nc2ccccc21 (stereo unspecified)
inactive: [16] 110 % of control | [17] 106 % of control | dose: 200.0 mg/kg/injection, schedule: Q01DX009 (ip), vehicle: Klucel (hydroxypropylcellulose) (HPC) 107 % of control

Nc1[nH]nc2nc(-c3ccc(Cl)cc3)cnc12
inactive: [9] 100 % of control | [10] 100 % of control | [11] 100 % of control

[Cl][Cu][Cl].[O-][n+]1c2ccccc2nc2ccccc21
inactive: [1] 92 % of control | [2] 103 % of control

CCOC(=O)C(NC(=O)c1ccccc1)C(C)(C)SCc1ccccc1 (stereo unspecified)
inactive: [6] 103 % of control | [7] 101 % of control | [8] 95 % of control

CC(=O)OC(C[Se]c1ccccc1)OC(C)=O
inactive: dose: 37.5 mg/kg/injection, schedule: Q01DX001 (ip), vehicle: saline with Tween-80 105 % of control | dose: 75.0 mg/kg/injection, schedule: Q01DX001 (ip), vehicle: saline with Tween-80 99 % of control and 105 % of control

CCOc1c(OC)cc(C2c3cc4c(c(OCC)c3CC3COC(=O)C32)OCO4)cc1OC (stereo unspecified)
inactive: dose: 12.5 mg/kg/injection, schedule: Q01DX005 (ip), vehicle: Klucel (hydroxypropylcellulose) (HPC) 94 % of control | dose: 25.0 mg/kg/injection, schedule: Q01DX005 (ip), vehicle: Klucel (hydroxypropylcellulose) (HPC) 91 % of control | [20] 86 % of control | [21] 97 % of control
